Results published in patent US5358951A, “Angiotensin II receptor blocking 2, 3, 6 substituted quinazolinones” (American Cyanamid Company, priority 1993, dated 1994).
Structures can show the parent of a compound that is named as a salt.

Test system: vasopressor response of angiotensin II
Assay: AII Challenge: antagonism of angiotensin II vasopressor response
Type: in vivo
Conditions: for inhibition in vivo at 0.5 mg/kg: 0.5 mg/kg i.v.; for inhibition in vivo at 0.3 mg/kg: 0.3 mg/kg i.v.
Outline: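 Percent antagonism is based on the systolic blood pressure rise (mmHg) to i.v. angiotensin II at 0.05 and 0.1 ug/kg. Each rat's own predose response was taken as 100%. Challenges were repeated from 30 to 300 min after i.v., i.p. or oral compound in cannulated conscious male SHR, 16-20 weeks old.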

[1] = 1 mg/kg P.O., AII 0.05 mcg/kg IV, 30 min post dose, sodium salt
[2] = 1 mg/kg P.O., AII 0.05 mcg/kg IV, 90 min post dose, sodium salt
[3] = 1 mg/kg P.O., AII 0.05 mcg/kg IV, 180 min post dose, sodium salt
[4] = 1 mg/kg P.O., AII 0.05 mcg/kg IV, 240 min post dose, sodium salt
[5] = 1 mg/kg P.O., AII 0.1 mcg/kg IV, 30 min post dose, sodium salt
[6] = 1 mg/kg P.O., AII 0.1 mcg/kg IV, 240 min post dose, sodium salt
[7] = Rattus norvegicus, iv, […], AII 0.1 mcg/kg IV, 90 min post dose

With `CCCCc1nc2ccc([C@@]3(C)C[C@@H]4CCCN4O3)cc2c(=O)n1Cc1ccc(-c2ccccc2-c2nnn[nH]2)cc1` (relative stereo) [Example 73, Cis-2-Butyl-6-(hexahydro-2-methylpyrrolo[1,2-b]isoxazol-2-yl)-3-[[2'-(1H-(tetrazol-5-yl)[1,1'-biphenyl-4-yl]methyl]-4(3H)-quinazolinone sodium salt] the “% Inhibition” value [1] was 31%, the “Response Average Change” value [1] was 22.5 mmHg and the “Response Average Change” value (1 mg/kg P.O., AII 0.05 mcg/kg IV, 60 min post dose, sodium salt) was 12.5 mmHg. The “% Inhibition” value [2] was 38%, the “Response Average Change” value [2] was 20 mmHg and the “Response Average Change” value (1 mg/kg P.O., AII 0.05 mcg/kg IV, 120 min post dose, sodium salt) was 12.5 mmHg. The “% Inhibition” value [3] was 23%, the “Response Average Change” value [3] was 25 mmHg and the “% Inhibition” value [4] was 15%. The “Response Average Change” value [4] was 27.5 mmHg, the “Response Average Change” value (1 mg/kg P.O., AII 0.05 mcg/kg IV, 300 min post dose) was 25 mmHg and the “% Inhibition” value [5] was 27%. For the same molecule, the “Response Average Change” value [5] was 27.5 mmHg, the “Response Average Change” value (1 mg/kg P.O., AII 0.1 mcg/kg IV, 60 min post dose, sodium salt) was 20 mmHg and the “Response Average Change” value (1 mg/kg P.O., AII 0.1 mcg/kg IV, 90 min post dose, sodium salt) was 22.5 mmHg. For the same molecule, the “Response Average Change” value (1 mg/kg P.O., AII 0.1 mcg/kg IV, 120 min post dose) was 22.5 mmHg, the “Response Average Change” value (1 mg/kg P.O., AII 0.1 mcg/kg IV, 180 min post dose, sodium salt) was 22.5 mmHg and the “% Inhibition” value [6] was 33%. For the same molecule, the “Response Average Change” value [6] was 25 mmHg, the “Response Average Change” value (1 mg/kg P.O., AII 0.1 mcg/kg IV, 300 min post dose) was 22.5 mmHg and the “% Inhibition” value (1 mg/kg i.v., AII 0.05 mcg/kg IV, 60 min post dose) was 83%. For the same molecule, the inhibition in vivo at 0.5 mg/kg (Rattus norvegicus, iv, 0.5 h, AII 0.05 mcg/kg IV, 30 min post dose) was 73%, the inhibition in vivo at 0.5 mg/kg (Rattus norvegicus, iv, 0.5 h, AII 0.1 mcg/kg IV, 30 min post dose) was 67% and the inhibition in vivo at 1 mg/kg (Rattus norvegicus, iv, 0.5 h, 1 mg/kg i.v., AII 0.05 mcg/kg IV, 30 min post dose) was 83%. The inhibition in vivo at 1 mg/kg (Rattus norvegicus, iv, 0.5 h, 1 mg/kg i.v., AII 0.1 mcg/kg IV, 30 min post dose) was 74%, the inhibition in vivo at 0.1 mg/kg (Rattus norvegicus, iv, 1 h, 0.1 mg/kg i.v., AII 0.05 mcg/kg IV, 60 min post dose) was 40% and the inhibition in vivo at 0.3 mg/kg (Rattus norvegicus, iv, 1 h, AII 0.1 mcg/kg IV, 60 min post dose) was 25%. The inhibition in vivo at 0.5 mg/kg (Rattus norvegicus, iv, 1 h, AII 0.05 mcg/kg IV, 60 min post dose) was 71%, the inhibition in vivo at 1 mg/kg (Rattus norvegicus, iv, 1 h, 1 mg/kg i.v., AII 0.05 mcg/kg IV, 60 min post dose) was 83% and the inhibition in vivo at 1 mg/kg (Rattus norvegicus, iv, 1 h, 1 mg/kg i.v., AII 0.1 mcg/kg IV, 60 min post dose) was 65%. The inhibition in vivo at 0.3 mg/kg (Rattus norvegicus, iv, 2 h, AII 0.05 mcg/kg IV, 120 min post dose) was 41%, the inhibition in vivo at 0.3 mg/kg (Rattus norvegicus, iv, 2 h, AII 0.1 mcg/kg IV, 120 min post dose) was 38% and the inhibition in vivo at 1 mg/kg (Rattus norvegicus, iv, 2 h, 1 mg/kg i.v., AII 0.05 mcg/kg IV, 120 min post dose) was 83%. For the same molecule, the inhibition in vivo at 1 mg/kg (Rattus norvegicus, iv, 2 h, 1 mg/kg i.v., AII 0.1 mcg/kg IV, 120 min post dose) was 86%, the inhibition in vivo at 0.3 mg/kg (Rattus norvegicus, iv, 3 h, AII 0.05 mcg/kg IV, 180 min post dose) was 36% and the inhibition in vivo at 1 mg/kg (Rattus norvegicus, iv, 3 h, 1 mg/kg i.v., AII 0.05 mcg/kg IV, 180 min post dose) was 72%. The inhibition in vivo at 1 mg/kg (Rattus norvegicus, iv, 3 h, 1 mg/kg i.v., AII 0.1 mcg/kg IV, 180 min post dose) was 42%, the inhibition in vivo at 0.3 mg/kg (Rattus norvegicus, iv, 4 h, AII 0.05 mcg/kg IV, 240 min post dose) was 23% and the inhibition in vivo at 0.5 mg/kg (Rattus norvegicus, iv, 4 h, AII 0.1 mcg/kg IV, 240 min post dose) was 39%. It also gave an inhibition in vivo at 1 mg/kg (Rattus norvegicus, iv, 4 h, 1 mg/kg i.v., AII 0.1 mcg/kg IV, 240 min post dose) of 74%, an inhibition in vivo at 1 mg/kg (Rattus norvegicus, iv, 5 h, 1 mg/kg i.v., AII 0.05 mcg/kg IV, 300 min post dose) of 50% and an inhibition in vivo at 1 mg/kg (Rattus norvegicus, iv, 5 h, 1 mg/kg i.v., AII 0.1 mcg/kg IV, 300 min post dose) of 60%. The inhibition in vivo at 0.3 mg/kg (Rattus norvegicus, iv, […], AII 0.05 mcg/kg IV, 90 min post dose) was 48%, the inhibition in vivo at 0.3 mg/kg [7] was 29% and the inhibition in vivo at 0.5 mg/kg [7] was 50%. It also gave an inhibition in vivo at 1 mg/kg (Rattus norvegicus, iv, […], 1 mg/kg i.v., AII 0.05 mcg/kg IV, 90 min post dose) of 83%, an inhibition in vivo at 1 mg/kg (Rattus norvegicus, iv, […], 1 mg/kg i.v., AII 0.1 mcg/kg IV, 90 min post dose) of 79% and an inhibition in vivo at 1 mg/kg (Rattus norvegicus, po, 1 h, 1 mg/kg P.O., AII 0.05 mcg/kg IV, 60 min post dose) of 62%. For the same molecule, the inhibition in vivo at 1 mg/kg (Rattus norvegicus, po, 1 h, 1 mg/kg P.O., AII 0.1 mcg/kg IV, 60 min post dose) was 47%, the inhibition in vivo at 1 mg/kg (Rattus norvegicus, po, 2 h, 1 mg/kg P.O., AII 0.05 mcg/kg IV, 120 min post dose) was 62% and the inhibition in vivo at 1 mg/kg (Rattus norvegicus, po, 2 h, 1 mg/kg P.O., AII 0.1 mcg/kg IV, 120 min post dose) was 40%. For the same molecule, the inhibition in vivo at 1 mg/kg (Rattus norvegicus, po, 3 h, 1 mg/kg P.O., AII 0.1 mcg/kg IV, 180 min post dose) was 40%, the inhibition in vivo at 1 mg/kg (Rattus norvegicus, po, 5 h, 1 mg/kg P.O., AII 0.05 mcg/kg IV, 300 min post dose) was 23% and the inhibition in vivo at 1 mg/kg (Rattus norvegicus, po, 5 h, 1 mg/kg P.O., AII 0.1 mcg/kg IV, 300 min post dose) was 40%. The inhibition in vivo at 1 mg/kg (Rattus norvegicus, po, […], 1 mg/kg P.O., AII 0.1 mcg/kg IV, 90 min post dose) was 40%.
